From patent US7816523B2, “Potentiators of glutamate receptors” (Eli Lilly and Company, priority 2004, dated 2010)

Key:
human mGlu2 receptors = target: T1, human mGlu2 receptors (Homo sapiens, UniProt Q14416); experiment: Potentiation of glutamate-induced increase in intracellular calcium with a mGlu2 expressing cell line (FLIPR); format: cell-based; conditions: with submaximal glutamate-site agonist (e.g. 1 μM glutamate)
T1 construct: expressed in transfected cells; host or cells: RGT cells (co-transfected with the glutamate/aspartate transporter GLAST and stably transfected with Galpha15)
T1 sequence (Q14416 19-872): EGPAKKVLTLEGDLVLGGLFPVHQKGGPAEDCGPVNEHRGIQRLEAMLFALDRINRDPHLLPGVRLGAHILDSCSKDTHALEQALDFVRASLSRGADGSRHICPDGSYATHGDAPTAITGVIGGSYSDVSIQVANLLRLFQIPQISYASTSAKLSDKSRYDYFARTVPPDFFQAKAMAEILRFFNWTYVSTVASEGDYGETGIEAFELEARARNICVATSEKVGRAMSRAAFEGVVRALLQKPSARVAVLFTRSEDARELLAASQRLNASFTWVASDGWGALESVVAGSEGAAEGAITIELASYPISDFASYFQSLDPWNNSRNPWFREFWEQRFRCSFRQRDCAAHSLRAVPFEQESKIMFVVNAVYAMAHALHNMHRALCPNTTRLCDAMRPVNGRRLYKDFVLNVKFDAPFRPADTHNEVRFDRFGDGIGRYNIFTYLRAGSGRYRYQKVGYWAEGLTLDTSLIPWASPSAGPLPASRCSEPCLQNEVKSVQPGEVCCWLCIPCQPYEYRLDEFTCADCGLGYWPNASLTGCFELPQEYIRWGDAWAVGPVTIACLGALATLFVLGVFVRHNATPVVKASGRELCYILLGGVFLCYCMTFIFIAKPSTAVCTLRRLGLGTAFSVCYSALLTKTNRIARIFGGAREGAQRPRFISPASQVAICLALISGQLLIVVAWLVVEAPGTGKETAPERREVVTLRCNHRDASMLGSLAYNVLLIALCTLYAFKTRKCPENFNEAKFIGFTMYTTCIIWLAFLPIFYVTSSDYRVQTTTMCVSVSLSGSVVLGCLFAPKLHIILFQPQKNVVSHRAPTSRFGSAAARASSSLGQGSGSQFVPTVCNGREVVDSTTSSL
Protocol: Potentiation of Glutamate-Induced Increase in Intracellular Calcium with a mGlu2 Expressing Cell Line
Cell lines expressing human mGlu2 receptors are derived as previously described (Desai, Burnett, Mayne, Schoepp, Mol. Pharmacol. 48, 648-657, 1995) and cultured in DMEM with 5% dialyzed fetal bovine serum, 1 mM glutamine, 1 mM sodium pyruvate, 50 μg/mL Geneticin G418, and 0.2 mg/mL hygromycin B. Confluent cultures are passaged weekly. These cells are referred to as RGT cells for Rat Glutamate Transporter, and have been co-transfected with the glutamate/aspartate transporter GLAST. The RGT cell line expressing the mGlu2 receptors is stably transfected with the promiscuous G-protein, Galpha15 to change the signaling pathway to the mGlu2 receptor to one that could be easily measured through release of intracellular calcium. Thus, intracellular calcium levels are monitored before and after the addition of drugs on a Fluorometric Imaging Plate Reader (i.e. FLIPR, Molecular Devices). The following buffer is used throughout as an assay buffer: 10 mM KCl, 138 mM NaCl, 5 mM Ca Cl2, 1 mM MgCl2, 4 mM Na H2PO4, 10 mM Glucose, 10 mM HEPES, pH 7.4. Cells that had been plated 48 hours prior at a density of 30-40,000 cells per well in a 96-well plate are loaded with a calcium-sensitive dye for 90 minutes at 25° C. Fluo-3 (2 mM in DMSO, Molecular Probes) are mixed with a equal volume of 10% pluronic acid in DMSO, and diluted to 8 μM into the buffer described above containing 10% fetal bovine serum to make the loading buffer. Following loading of the cells, the loading buffer is removed and replaced with assay buffer prior to drug addition and monitoring on the FLIPR. The resulting signal from the addition of compounds of formula (I) and submaximal concentrations of a glutamate-site agonist (e.g. 1 μM glutamate) is determined by taking the difference of the maximal fluorescent peak height minus the background fluorescence in each well and expressing the results as a percent of the signal seen with a maximal glutamate response (30 μM glutamate, typically about 30-50,000 Relative Fluorescent Units). Least squares curve fitting with a four-parameter equation is then applied to the resulting dose-% response curve to determine the resulting EC50 values.

human CysLT1 receptor = target: T2, human CysLT1 receptor (Homo sapiens, UniProt Q9Y271); experiment: Antagonism of LTD4-induced increase in intracellular calcium within a CysLT1 receptor expressing cell line (FLIPR); format: cell-based; conditions: 6 nM LTD4; read-out: antagonism of CysLT1 receptors, IC50
T2 construct: expressed in transfected cells; host or cells: AV12-664 (ATCC-9595)
T2 sequence (Q9Y271 1-337): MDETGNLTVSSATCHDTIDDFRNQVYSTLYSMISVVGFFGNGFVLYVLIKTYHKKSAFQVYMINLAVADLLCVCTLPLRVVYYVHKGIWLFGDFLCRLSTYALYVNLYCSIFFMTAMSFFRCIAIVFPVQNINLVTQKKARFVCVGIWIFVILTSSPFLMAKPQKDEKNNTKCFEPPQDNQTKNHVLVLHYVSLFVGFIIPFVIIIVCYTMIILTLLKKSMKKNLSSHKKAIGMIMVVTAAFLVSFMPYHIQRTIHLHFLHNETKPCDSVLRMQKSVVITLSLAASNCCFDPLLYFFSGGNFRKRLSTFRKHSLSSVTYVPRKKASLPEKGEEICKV
Protocol: Antagonism of Cysteinyl-leukotriene D4 (LTD4) -Induced Increase in Intracellular Calcium within a Cysteinyl-Leukotriene 1 (CysLT1) Receptor Expressing Cell Line
Cell lines expressing the human CysLT1 receptor [AV12-664 (ATCC-9595)] are derived and maintained in culture media: DMEM with 5% dialyzed fetal bovine serum, 1 mM glutamine, and 1 mM sodium pyruvate. Confluent cultures are passaged weekly. Intracellular calcium levels are monitored in the CysLT1-expressing cells with the addition of LTD4, with or without prior exposure to the compounds being tested as antagonists with a Fluorometric Imaging Plate Reader (FLIPR, Molecular Devices). The following buffer is used throughout as an assay buffer: Hanks Buffered Saline Solution without phenol red (GIBCO), with 10 mM HEPES pH 7.4. Cells that had been plated 48 hours prior at a density of 20-25,000 cells per well in a 96-well plate are loaded with a calcium-sensitive dye for 90 minutes at 25° C. Fluo-3 (2 mM in DMSO, Molecular Probes) is mixed with an equal volume of 10% pluronic acid in DMSO, and diluted to 8 μM in the buffer described above containing 10% fetal bovine serum to make the loading buffer. Following loading of the cells, the buffer is removed and replaced with assay buffer prior to drug addition and monitoring on the FLIPR for several minutes. The resulting signal from the addition of 6 nM LTD4 (provides approximately 90% of the maximal signal with 25 nM LTD4) is determined by taking the difference of the maximal fluorescent peak height minus the background fluorescence in each well and expressing the results as a percent of the signal seen without pretreatment of the test compound(s). Least squares curve fitting with a four-parameter equation is applied to the resulting dose-% inhibition curve to determine the resulting IC50 values.

SMILES	EC50 (human mGlu2 receptors)	IC50 (human CysLT1 receptor)	melting point
CCCc1c(OCc2ccc(Cc3cccc(-c4nn[nH]n4)c3)cc2)ccc(C(C)=O)c1O [Example 60, 1-(2-hydroxy-3-propyl-4-{4-[3-(1H-tetrazol-5-yl)-benzyl]-benzyloxy}-phenyl)-ethanone]		< 750 nM	
CC(=O)c1ccc(OCc2ccc(Cc3cccc(C(=O)O)c3)cc2)c(Cl)c1O [Example 65, 3-[4-(4-Acetyl-2-chloro-3-hydroxy-phenoxymethyl)-benzyl]-benzoic acid]	< 100 nM	< 750 nM	
CCCc1c(OCc2ccc([C@H](O)c3cccc(C(=O)O)c3)cc2)ccc(C(C)=O)c1O [Example 155, 3-{[4-(4-acetyl-3-hydroxy-2-propyl-phenoxymethyl)-phenyl]-(S)-hydroxymethyl}-benzoic acid]			198.35 °C

Continued, values first:

EC50 (human mGlu2 receptors)	IC50 (human CysLT1 receptor)	melting point	SMILES
< 100 nM	< 750 nM		CCCc1c(OCc2ccc(C(F)c3cccc(-c4nnn[nH]4)c3)cc2)ccc(C(C)=O)c1O (single isomer, unassigned; isomer 1) [Example 81, 1-[4-(4-{Fluoro-[3-(1H-tetrazol-5-yl)-phenyl]-methyl}-benzyloxy)-2-hydroxy-3-propyl-phenyl]-ethanone isomer 1]
< 100 nM	< 750 nM		CCCc1c(OCc2ccc(C(O)c3cccc(C(=O)O)c3)cc2)ccc(C(C)=O)c1O (single isomer, unassigned; isomer 1) [Example 83, (+)-3-{[4-(4-Acetyl-3-hydroxy-2-propyl-phenoxymethyl)-phenyl]-hydroxy-methyl}-benzoic acid isomer 1]
< 100 nM	< 750 nM		CCCc1c(OCc2ccc(C(O)c3ccc(OC)c(-c4nnn[nH]4)c3)cc2)ccc(C(C)=O)c1O (stereo not shown) [Example 47, 1-[2-hydroxy-4-(4-{hydroxy-[4-methoxy-3-(2H-tetrazol-5-yl)-phenyl]-methyl}-benzyloxy)-3-propyl-phenyl]-ethanone]
